According to US20240117385A1, “ENZYMES OF LUCIFERIN BIOSYNTHESIS AND USE THEREOF” (LIGHT BIO, INC., priority 2018, published 2024):

How the values were obtained:
[1] = test system: hispidin-synthase and caffeylpyruvate hydrolase with Neonothopanus nambi luciferase and hispidin hydroxylase; assay: Luminescence with recombinant hispidin-synthase, caffeylpyruvate hydrolase, luciferase and hispidin hydroxylase; type: biochemical; settings: 0.2 μM
Protocol: The obtained enzymes were used for obtaining luminescence (bioluminescence) in reaction with Neonothopanus nambi luciferase and hispidin hydroxylase, obtained according to Example 4. 5 μl of each isolated recombinant protein solution were put into a glass tube, comprising 100 μl of the buffer (0.2 M of Na-phosphate buffer, 0.5 M of Na2SO4, 0.1% dodecylmaltoside (DDM) pH 8.0), 1 mM of NADPH (Sigma-Aldrich, USA), 10 mM of ATP (ThermoFisher Scientific, USA), 1 mM of CoA (Sigma-Aldrich, USA), 1 mM of malonyl-CoA (Sigma-Aldrich, USA) and 0.2 μM of one of 3-arylacrylic acids: paracoumaric acid (Sigma-Aldrich, USA), cinnamic acid (Sigma-Aldrich, USA) or ferulic acid (Abcam, USA). In the other experiment instead of substituted 3-arylacrylic acid the analogues of fungal oxyluciferin—(2E,5E)-2-hydroxy-6-(4-hydroxyphenyl)-4-oxohexa-2,5-diene, (2E,5E)-2-hydroxy-4-oxo-6-phenylhexa-2,5-diene, or (2E,5E)-2-hydroxy-6-(4-hydroxy-3-methoxyphenyl)-4-oxohexa-2,5-diene acids—also at concentration of 0.2 μM were put into a glass tube. The glass tubes were placed into a luminometer.

[2] = test system: luciferase and hispidin hydroxylase of Neonothopanus nambi; assay: Hispidin hydroxylase with hispidin analogues in cell lysate; type: biochemical; settings: 660 μg/ml, 1 mM NADPH, pH 8.0
Protocol: HEK293NT cells, expressing luciferase and hispidin hydroxylase of Neonothopanus nambi, obtained according to Example 2, were rinsed from Petri dishes 24 hours after transfection with Versene solution laced with 0.025% of trypsin, the medium was replaced by phosphate-buffered saline with pH 8.0 by centrifugation, the cells were resuspended, lysed by ultrasound in Bioruptor (Diagenode, Belgium) with in 7 minutes at 0° C. in conditions recommended by the manufacturer, and 1 mM of NADPH (Sigma-Aldrich, USA), and also hispidin or one of its analogues were added to the medium: (E)-4-hydroxy-6-(4-hydroxystyryl)-2H-pyran-2-one, (E)-6-(2-(1H-indol-3-yl)vinyl)-4-hydroxy-2H-pyran-2-one, (E)-6-(2-(1,2,3,5,6,7-hexahydropyrido[3,2,1-ij]quinolin-9-yl)vinyl)-4-hydroxy-2H-pyran-2-one, E)-6-(4-(diethylamino)styryl)-4-hydroxy-2H-pyran-2-one, or (E)-4-hydroxy-6-(2-(6-hydroxynaphthalene-2-yl)vinyl)-2H-pyran-2-one at concentration of 660 μg/ml. Bioluminescence spectra were detected by spectrofluorometer Varian Cary Eclipse. […] Depending on luciferin used the expected displacement of luminescence peak was observed.

[3] = test system: recombinant hispidin hydroxylase from Neonothopanus nambi; assay: HPLC analysis of hydroxylation by recombinant hispidin hydroxylase; type: biochemical; settings: 0.2 μM substrate, 1 mM NADPH, 30 minutes
Protocol: The isolated recombinant hispidin hydroxylase from Neonothopanus nambi, obtained according to Example 4, was added to reaction mixtures comprising 1 mM of NADPH and 0.2 μM of hispidin, (E)-4-hydroxy-6-styryl-2H-pyran-2-one or (E)-4-hydroxy-6-(4-hydroxystyryl)-2H-pyran-2-one in 100 μl of the buffer (0.2 M of Na-phosphate buffer, 0.5 M of Na2SO4, 0.1% dodecylmaltoside (DDM) pH 8.0). In 30 minutes, the reaction mixture was analyzed by HPLC using synthetic luciferins as standards.

[4] = test system: recombinant hispidin hydroxylases; assay: Functionality test of isolated recombinant hispidin hydroxylases in luminometer; type: biochemical; settings: 0.2 μM hispidin, 1 mM NADPH, Neonothopanus nambi luciferase
Protocol: Polyhistidine sequence (His tag) was operatively attached to 5′-end of nucleic acids coding hispidin-3-hydroxylases and luciferase from Neonothopanus nambi, obtained according to the examples 1 and 2. The obtained structures were cloned into pET-23 vector by means of restriction endonucleases BamHI and HindIII. The vector was used for transformation of Escherichia coli cells of BL21-DE3 strain. The cells were dispersed in Petri dishes with LB medium, comprising 1.5% of agar, 100 μg/ml of ampicillin, and incubated overnight at 37° C. Then, Escherichia coli colonies were transferred into 4 ml of liquid LB medium laced with ampicillin, incubated overnight at 37° C. with fluctuation. 1 ml of overnight culture was transferred into 100 ml of Overnight Express Autoinduction medium (Novagen), where ampicillin was preliminarily added to. The culture was grown at 37° C. within 2.5 hours until reaching optical density of 0.6 OE at 600 nm, and then it was grown at room temperature within 16 hours. […]
Aliquots of isolated recombinant hispidin hydroxylases were used for testing functionality and stability. […] In all cases the luminescence intensity when using hispidin was the highest when using Neonothopanus nambi hispidin hydroxylase and the lowest when using Armillaria mellea hispidin hydroxylase.

[5] = test system: Pichia pastoris GS115 yeast cells expressing luciferase, hispidin hydroxylase and coumarate-CoA ligase 1; assay: Screening of PKS for hispidin-synthase activity in yeast colonies sprayed with caffeic acid; type: cell-based; settings: colonies sprayed with caffeic acid solution
Text: The selected nucleotide sequences for expression in Pichia pastoris yeast cells and Nicotiana benthamiana plant cells were optimized. The resulting nucleic acids were obtained synthetically and cloned into pGAPZ vector and used for verifying ability of the expressed proteins to synthesize hispidin.
For this purpose, in genome of Pichia pastoris GS115 yeast line, constitutively expressing Neonothopanus nambi luciferase and hispidin hydroxylase, obtained according to Example 1, there was additionally introduced pGAPZ plasmid, comprising gene of
Arabidopsis thaliana coumarate-CoA ligase 1 (which nucleotide and amino acid sequence are shown in SEQ ID NOs: 140, 141), also obtained by oligonucleotide synthesis. The plasmid was linearized at restriction site AvrII and used for transformation into Pichia pastoris GS115 cells.
The obtained yeast cells, constitutively expressing Neonothopanus nambi luciferase and hispidin hydroxylase and Arabidopsis thaliana coumarate-CoA ligase 1, were […] by plasmids comprising coding PKS sequences, and dispersed in Petri dishes with RDB medium, comprising 1 M of sorbitol, 2% (weight/volume) of glucose, 1.34% (weight/volume) of yeast nitrogen base (YNB), 0.005% (weight/volume) of amino acids mixture, 0.00004% (weight/volume) of biotin and 2% (weight/volume) of agar. To identify enzymes having hispidin-synthase activity, the obtained colonies were sprayed with caffeic acid solution, detecting hispidin-synthase presence in cells by occurrence of luminescence. Luminescence emitted by colonies was detected by means of IVIS Spectrum CT (Perkin Elmer, USA). Yeast line constitutively expressing luciferase, hispidin hydroxylase and coumarate-CoA ligase 1, and also wild yeast cells were used as negative control. […] Amino acid sequences coded by then are shown in SEQ ID NOs: 119, 121, 123, 125, 127, 129, 131, 133, 135, 137, 139 respectively.

Molecule: O=C(/C=C/c1ccccc1)/C=C(/O)C(=O)O [(2E,5E)-2-hydroxy-4-oxo-6-phenylhexa-2,5-diene acid]
- luminescence in reaction [1]: resulted in luminescence

Molecule: COc1cc(/C=C/C(=O)/C=C(/O)C(=O)O)ccc1O [(2E,5E)-2-hydroxy-6-(4-hydroxy-3-methoxyphenyl)-4-oxohexa-2,5-diene acid]
- luminescence in reaction [1]: resulted in luminescence

Molecule: O=C(/C=C/c1ccc(O)cc1)/C=C(/O)C(=O)O [(2E,5E)-2-hydroxy-6-(4-hydroxyphenyl)-4-oxohexa-2,5-diene acid]
- luminescence in reaction [1]: resulted in luminescence

Molecule: O=c1cc(O)cc(/C=C/c2ccc3cc(O)ccc3c2)o1 [(E)-4-hydroxy-6-(2-(6-hydroxynaphthalene-2-yl)vinyl)-2H-pyran-2-one]
- Luminescence in lysates [2]: Luminescence in lysates was observed

Molecule: O=c1cc(O)cc(/C=C/c2ccc(O)cc2)o1 [(E)-4-hydroxy-6-(4-hydroxystyryl)-2H-pyran-2-one]
- Luminescence in lysates [2]: Luminescence in lysates was observed
- HPLC detection of hydroxylated product [3]: occurrence of peaks corresponding to 3d position hydroxylated derivatives

Molecule: O=c1cc(O)cc(/C=C/c2ccccc2)o1 [(E)-4-hydroxy-6-styryl-2H-pyran-2-one]
- HPLC detection of hydroxylated product [3]: occurrence of peaks corresponding to 3d position hydroxylated derivatives

Molecule: O=c1cc(O)cc(/C=C/c2cc3c4c(c2)CCCN4CCC3)o1 [(E)-6-(2-(1,2,3,5,6,7-hexahydropyrido[3,2,1-ij]quinolin-9-yl)vinyl)-4-hydroxy-2H-pyran-2-one]
- Luminescence in lysates [2]: Luminescence in lysates was observed

Molecule: O=c1cc(O)cc(/C=C/c2c[nH]c3ccccc23)o1 [(E)-6-(2-(1H-indol-3-yl)vinyl)-4-hydroxy-2H-pyran-2-one]
- Luminescence in lysates [2]: Luminescence in lysates was observed

Molecule: CCN(CC)c1ccc(/C=C/c2cc(O)cc(=O)o2)cc1 [(E)-6-(4-(diethylamino)styryl)-4-hydroxy-2H-pyran-2-one]
- Luminescence in lysates [2]: Luminescence in lysates was observed

Molecule: O=C(O)/C=C/c1ccccc1 [cinnamic acid]
- luminescence in reaction [1]: resulted in luminescence

Molecule: COc1cc(/C=C/C(=O)O)ccc1O [ferulic acid]
- luminescence in reaction [1]: resulted in luminescence

Molecule: O=C(O)/C=C/c1ccc(O)cc1 [paracoumaric acid]
- luminescence in reaction [1]: resulted in luminescence

B1: Neonothopanus nambi hispidin hydroxylase: isolated recombinant hispidin hydroxylase from Neonothopanus nambi (protein, listed as Neonothopanus nambi)
chain: MASFENSLSVLIVGAGLGGLAAAIALRRQGHVVKIYDSSSFKAELGAGLAVPPNTLRSLQQLGCNTENLNGVDNLCFTAMGYDGSVGMMNNMTDYREAYGTSWIMVHRVDLHNELMRVALDPGGLGPPATLHLNHRVTFCDVDACTVTFTNGTTQSADLIVGADGIRSTIRRFVLEEDVTVPASGIVGFRWLVQADALDPYPELDWIVKKPPLGARLISTPQNPQSGVGLADRRTIIIYACRGGTMVNVLAVHDDERDQNTADWSVPASKDDLFRVFHDYHPRFRRLLELAQDINLWQMRVVPVLKKWVNKRVCLLGDAAHASLPTLGQGFGMGLEDAVALGTLLPKGTTASQIETRLAVYEQLRKDRAEFVAAESYEEQYVPEMRGLYLRSKELRDRVMGYDIKVESEKVLETLLRSSNSA
- luminescence intensity when using hispidin (comparison of hispidin hydroxylases) [4]: highest

B2: SEQ ID NO: 135: plant type III polyketide synthase (PKS) (protein, listed as Wachendorfia thyrsiflora)
chain: MASTEGIQAYRNNMAEGPATIMAIGTANPPNVVDASTFPDYYWRVTNSEHLSPEYRVKLKRICERSSIRKRHLVLTEQLLKENPTLTTYVDASYDERQSIVLDAVPKLACEAAAKAIKEWGRPKTDITHMVVCTGAGVDVPGVDYKMMNLLGLPPTVNRVMLYNVGCHASGTVLRIAKDLAENNKGARVLVVSSEVSVMFFRGPAEGDVEILLGQALFGDGSAAIIVGADPIEGVEKPIFQIFSASQMTLPEGEHLVAGHLRELGLTFHLKPQLPNTVSSNIHKPLKKAFEPLNITDWNSIFWIVHPGGRAILDQVQEKIGLEENKLDVSRYVLAENGNMMSASVFFIMDEMRKRSAAQGCSTTGEGHEWGVLFGFGPGLSIETVVLHSVPLSI
- hispidin-synthase activity [5]: had hispidin-synthase activity
